From patent publication US12493045B2, “Multi-target crosslinkers and uses thereof” (The Regents of the University of California, priority 2018, dated 2025) come the findings set out here.

Residue numbers refer to the chain shown, from its start.

For one data set, the system named is peptide 7KR (Ac-AAAKAAR). Briefly: Reaction of crosslinker with model peptide 7KR (mass spectra). The data set is classed as biochemical. The note with it: 10 μM peptide, 10 μM crosslinker, PBS pH 7.5, RT 1 h. From the text: Reaction of NHSF with Model Peptide. We first tested the reactivity of NHSF with a model peptide (Ac-AAAKAAR (SEQ ID NO:1), 7KR) with a single Lys as a reactive group, and compared its reactivity towards BS2G (bis(sulfosuccinimidyl) 2,2,4,4-glutarate-d4, FIG. 2A), a commercial NHS-based homo-bifunctional crosslinker of similar length. […] Owing to the low reactivity of sulfonyl-fluorides and the lack of reactive groups in 7KR, additional reaction was not observed with the Arg sidechain.
Peptide and protein cross-linking.

The test system of data set [1] is E. coli whole cell lysate. Briefly: CXMS analysis of cross-linked E. coli whole cell lysate. The note with it: 10 mg/mL lysate, 40 mM crosslinker, RT 2 h.
Procedure: To determine whether NHSF could be used in complex biological samples to generate novel cross-links for MS identification, we applied BS2G and NHSF on E. coli whole cell lysate.
Preparation of E. coli cell lysate. DH10β bacterial cells were cultured overnight. After cells were harvested by centrifugation, cell pellets were washed twice with PBS. Cells were resuspended with lysis buffer (50 mM Hepes, pH 8.3, 150 mM NaCl, 1×EDTA-free Complete Protease Inhibitor Cocktail) and incubate with lysozyme (1 mg/mL), DNase I (0.5 mg/mL) and RNase A (0.1 mg/mL) at 4° C. for 30 min. Cell lysates were sonicated for 3 min with 30% energy and filtrated with Amicon-0.5 ml 10K unit for 3 times.
Peptide and protein cross-linking. […] E. coli cell lysate: 20 uL lysate (10 mg/mL protein, 50 mM Hepes, pH 8.3, 150 mM NaCl) was incubate with 40 mM BS2G or 40 mM NHSF at RT for 2 h. BS2G cross-linking reaction was terminated at RT by adding 100 mM ammonium bicarbonate and incubating for 20 min. NHSF cross-linking reaction was terminated at RT by adding 100 mM DTT and incubating for 20 min.
Protein digestion. All protein samples were precipitated by six volumes of acetone at −20° C. for 30 min. Precipitated proteins were dried in air and resuspended in 8 M urea, 100 mM Tris, pH 8.5. […]
The target of data set [2] is Bovine Serum Albumin (BSA) (Bos taurus, UniProt P02769). As to the kind of experiment: CXMS analysis of cross-linked BSA.
Procedure: NHSF Cross-links Bovine Serum Albumin.
BSA: In a 20 μL reaction, 10 μM BSA (69 kDa, in PBS buffer, pH 7.5) was cross-linked at RT for 1 h with 1 mM BS2G or 1 mM NHSF, which corresponded to a 1:100 protein:cross-linker molar ratio. BS2G cross-linking reaction was terminated at RT by adding 20 mM ammonium bicarbonate and incubating for 20 min. NHSF cross-linking reaction was terminated at RT by adding 10 mM Dithiothreitol (DTT) and incubating for 20 min.
Protein digestion. All protein samples were precipitated by six volumes of acetone at −20° C. for 30 min. Precipitated proteins were dried in air and resuspended in 8 M urea, 100 mM Tris, pH 8.5. After reduction with 2 mM DTT for 20 min and alkylation with 10 mM iodoacetamide for 15 min in the dark, samples were diluted to 2 M urea with 100 mM Tris, pH 8.5, and digested with trypsin (at 50:1 protein:enzyme ratio) at 37° C. for 16 h. Digestion was stopped by adding formic acid to 5% final concentration, and digested peptides were desalted with stagetip.
Tandem mass spectrometric analysis. Mass spectrometry experiments were performed using an Orbitrap Fusion Lumos™ instrument (ThermoFisher, San Jose, CA) coupled with an UltiMate™ 3000 nano LC. Mobile phase A and B were water and acetonitrile, respectively, with 0.1% formic acid. […]
Data set [3] deals with T1, Glutathione S-Transferase (GST) (Escherichia coli, UniProt P0A9D2).
T1 sequence (P0A9D2 1-201): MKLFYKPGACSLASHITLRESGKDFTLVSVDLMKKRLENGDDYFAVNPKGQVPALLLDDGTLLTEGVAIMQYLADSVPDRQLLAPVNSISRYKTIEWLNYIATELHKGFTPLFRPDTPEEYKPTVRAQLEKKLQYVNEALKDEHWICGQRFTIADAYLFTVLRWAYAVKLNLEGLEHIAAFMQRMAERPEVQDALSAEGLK
Briefly: Cross-linking of GST (SDS-PAGE, Western blot, CXMS). Background: Immunoblotting shows a protein as a band on a membrane.
Procedure: NHSF Cross-links Glutathione S-Transferase. To further validate the cross-linking specificity of NHSF, the homodimeric Glutathione S-Transferase (GST) was cross-linked by NHSF or BS2G.
Peptide and protein cross-linking. […] BS2G cross-linking reaction was terminated at RT by adding 20 mM ammonium bicarbonate and incubating for 20 min. NHSF cross-linking reaction was terminated at RT by adding 10 mM Dithiothreitol (DTT) and incubating for 20 min. GST: In a 20 μL reaction, 10 μM GST (23 kDa, in PBS buffer, pH 7.5) was cross-linked at RT for 1 h with 0.5 mM BS2G or 0.5 mM NHSF, which corresponded to a 1:50 protein:cross-linker molar ratio. The cross-linking reactions were similarly terminated as described in the BSA section above.

Data set [4] has as its system SSB-19(3×) or SSB-ATC(4×) complex. Briefly: SSB protein-DNA oligo crosslinking (denaturing TBE-urea gel shift). The note with it: 19(3×) or ATC(4×) DNA, 1 mM crosslinker, UV 365 nm 15 min. The data set is classed as biochemical.
For a further data set, the system named is HEK293T cells. As to the kind of experiment: Toxicity on incubation with HEK293T cells. The data set is classed as cell-based, mammalian. The note with it: 0.6 mM HoQM incubated for different time duration (4 or 8 hr).
Another data set concerns the target T2, 14-3-3(QQR) mutant (Homo sapiens, UniProt P63104, A13Q/E14R/L12Q).
T2 sequence (P63104 1-245 L12Q/A13Q/E14R): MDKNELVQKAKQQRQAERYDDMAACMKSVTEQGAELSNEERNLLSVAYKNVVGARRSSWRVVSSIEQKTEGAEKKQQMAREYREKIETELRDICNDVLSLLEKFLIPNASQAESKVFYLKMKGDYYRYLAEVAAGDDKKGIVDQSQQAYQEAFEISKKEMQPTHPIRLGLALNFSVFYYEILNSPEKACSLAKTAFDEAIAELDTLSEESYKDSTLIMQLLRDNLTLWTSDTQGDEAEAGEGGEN
As to the kind of experiment: Crosslinking of monomeric 14-3-3(QQR) mutant in vitro (SDS-PAGE). The data set is classed as biochemical. Conditions: 0-0.4 mM NHQM, UV 365 nm 15 min. From the text: (§1) Following crosslinking, NHQM results in a short and rigid linkage, which requires close contact of target residue pairs for effective crosslinking. We therefore tested whether this feature of NHQM could be used to readily determine protein dimerization in vitro and in cell lysates. It has been reported that three mutations (^12LAE^14→^12QQR^14) of 14-3-3 disrupt the dimer interface to form a monomer, leading to a distinct function from WT 14-3-3, such as chaperone activity.^[17] [18] However, previously the 14-3-3(QQR) mutant was isolated from cells and then characterized as a monomer using size exclusion chromatography. This in vitro process is tedious, and the results may not represent what occur in the cellular environment. We first treated purified 14-3-3 WT and QQR mutant with various amounts of NHQM and illuminated with UV light of 365 nm (FIGS. 9A-9B). […] We then applied NHQM directly to cell lysates of E. coli cells expressing either 14-3-3 WT or its QQR mutant, without isolating the 14-3-3 proteins.
(§2) Utilizing NHQM to differentiate 14-3-3 dimer versus monomer.

A further data set deals with T3, WT 14-3-3 protein (Homo sapiens, UniProt P63104).
T3 sequence (P63104 1-245): T2 sequence (P63104 1-245 L12Q/A13Q/E14R) with Q12L, Q13A, R14E
As to the kind of experiment: Tandem MS (CXMS) of crosslinked 14-3-3. The format is biochemical. Here is the method: Tryptic digestion of cross-linked proteins. Protein digestion was carried out by following a procedure described previously.^[28] Briefly, after crosslinking protein samples were quenched by adding 100 mM Tris-HCI, pH 7.4 for 15 min. […] Protein was collected by centrifugation for 10 min at 15,000 g. […] Digestion was terminated by adding formic acid at final concentration 5% (v/v). Digested peptides were desalted with C18 ZipTip, and eluted peptides were dried down with SpeedVac.
Mass spectrometry. Digested peptides were dissolved in 200 mM NH4HCO3 after clean-up and then subject to tandem mass spectrometry on a Thermo Q-Exactive Orbitrap. Crosslinked peptides. Peptides were separated by nano-LC Ultimate 3000 high-performance liquid chromatography system using an Acclaim PepMap C18 column (Thermo Scientific). […] The Q-Exactive mass spectrometer was operated in data-dependent mode with one full MS scan at R=70,000 (m/z=200) followed by ten HCD MS/MS scans at R=17,500 (m/z=200) using a stepped normalized collision energy of 28, 30, 35 eV. The AGC targets for the MS1 and MS2 scans were 3×10^6 and 1×10^5, respectively, and the maximum injection time for MS1 was 250 ms, and for MS2 was 200 ms. Precursors of the +1, +6 or above, or unassigned charge states were rejected; exclusion of isotopes was enabled; dynamic exclusion was set to 30 s. The crosslinking mass spectra were analyzed with pLink 2.3.^[29]

Data set [5] deals with T4, 14-3-3 expressed in HEK293T cells (Homo sapiens, UniProt P63104).
T4 sequence (P63104 1-245): T2 sequence (P63104 1-245 L12Q/A13Q/E14R) with Q12L, Q13A, R14E
Briefly: 14-3-3 crosslinking in mammalian cells (Western blot). Conditions: 4 mM NHQM, UV 365 nm 15 min.
Procedure: We subsequently tested NHQM's crosslinking ability in mammalian cells. We incubated NHQM with live mammalian cells expressing the dimeric glutathione transferase (GST)^[9] or 14-3-3. […] Therefore, we tested using NHQM to crosslink proteins on mammalian cell surfaces. […] In addition, we further explored whether NHQM could probe endogenous mammalian proteins at physiologically relevant conditions. With this aim, we cultured MCF7 cells and treated them with or without NHQM, with or without UV, using the amine-reactive crosslinker bissulfosuccinimidyl suberate (BS^3) as a positive control.
Plasmid pCDNA3.1-14-3-3, pCDNA3.1-GST, or pCDNA3.1-EGFR (2 μg each) was transfected into one well of 6-well plate of HEK293T cells, respectively. After transfection, the cells were cultured at 37° C. for additional 24 hr. The cells were harvested and washed with PBS, pH 7.4 for one time, followed by resuspension in 50 μL PBS, pH 7.4. […] The samples were then quickly treated with 2×SDS loading dye containing 100 mM DTT, boiled at 95° C. for 5 mins, and analyzed by running Western blot using an anti-His antibody.
Plasmid pCDNA3.1-14-3-3 (2 μg) was transfected into one well of 6-well plate of HEK293T cells. […] The samples were then quickly treated with 2×SDS loading dye containing 100 mM DTT, boiled at 95° C. for 5 min, and analyzed with Western blot using an anti-His antibody.

Data set [6] has as its target T5, 14-3-3 QQR mutant in E. coli cell lysate (Homo sapiens, UniProt P63104, A13Q/E14R/L12Q).
T5 construct: expressed in transfected cells; host or cells: E. coli, cell lysate
T5 sequence (P63104 1-245 L12Q/A13Q/E14R): T2 sequence (P63104 1-245 L12Q/A13Q/E14R)
As to the kind of experiment: Crosslinking of 14-3-3 QQR mutant in E. coli cell lysate (Western blot). The format is biochemical.
From the text: as §1

The target in data set [7] is endogenous EGFR in MCF7 cells (Homo sapiens, UniProt P00533). Briefly: Crosslinking of endogenous EGFR on mammalian cell surface (Western blot). The format is cell-based. Conditions: BS^3 as positive control.
The target of data set [8] is T6, 14-3-3 protein (WT homodimer) (Homo sapiens, UniProt P63104).
T6 sequence (P63104 1-245): T2 sequence (P63104 1-245 L12Q/A13Q/E14R) with Q12L, Q13A, R14E
Briefly: Dimeric crosslinking of 14-3-3 WT in vitro (SDS-PAGE). The data set is classed as biochemical.
From the text: We initially designed and synthesized a heterobifunctional crosslinker NHQM containing an NHS ester and a photocaged ortho-quinone methide (o-QM) (FIG. 7A). Two fluorines were installed at the methyl group ortho to the phenolic hydroxyl group, which was photocaged by an o-nitrobenzyl group. When in proximity to proteins, the reactive NHS ester will react with exposed Lys residues, planting the photocaged o-QM next to residues on interaction partners. UV release of o-nitrobenzyl induces elimination of a fluoride ion to generate o-QM spontaneously, which will subsequently crosslink with nearby nucleophilic side chains (FIG. 7A). […] We further studied the crosslinking rate by varying the duration of UV treatment immediately after addition of NHQM.
as §1
NHQM mediated 14-3-3 crosslinking in vitro.
as §2
HoQM mediated 14-3-3 crosslinking in vitro.

Data set [9] concerns the target T7, 14-3-3 WT in E. coli cell lysate (Homo sapiens, UniProt P63104).
T7 sequence (P63104 1-245): T2 sequence (P63104 1-245 L12Q/A13Q/E14R) with Q12L, Q13A, R14E
As to the kind of experiment: Crosslinking of 14-3-3 WT in E. coli cell lysate (Western blot). The data set is classed as biochemical.
From the text: as §1

Data set [10] has as its system SSB protein with viral M13mp18 DNA. As to the kind of experiment: SSB protein-M13mp18 DNA crosslinking (denaturing TBE-urea gel shift). The data set is classed as biochemical. The note with it: 1 mM NHQM, UV 365 nm 15 min. On the procedure: that are reported to interact with SSB^[24] [25] The SSB-DNA complex was treated with NHQM and UV activation, and analyzed by denaturing TBE-urea gel shift assay to detect covalent crosslinking between SSB and DNA. […] We further investigated protein-DNA crosslinking by incubating a natural single stranded circular viral DNA M13mp18 with the SSB protein.^[26] As shown in FIG. 21B (also FIGS. 22A-22B), the M13mp18 control DNA run as two isoforms in the denatured TBE-Urea gel due to its large size, a major form remained in the well and a minor form migrating in the gel.
(In general: Mobility shift assays separate free from complexed probe on a gel.)

In data set [11] the target is glutathione transferase (GST) expressed in HEK 293T cells (Escherichia coli, UniProt P0A9D2). As to the kind of experiment: GST crosslinking in mammalian cells (Western blot). The data set is classed as cell-based. Conditions: 4 mM NHQM, UV 365 nm 15 min.
The next data set deals with Thioredoxin (Trx) (Escherichia coli, UniProt P0AA25). Conditions: 1 mM or 10 mM NHQM, UV 365 nm 15 min, E. coli cell lysate.
Data set [12] addresses epidermal growth factor receptor (EGFR) (Homo sapiens, UniProt P00533). As to the kind of experiment: Crosslinking of overexpressed EGFR on HEK293T cells (Western blot). The note with it: HEK293T overexpressing EGFR, 4 mM NHQM, UV 365 nm 15 min.
Procedure: We subsequently tested NHQM's crosslinking ability in mammalian cells. […] Therefore, we tested using NHQM to crosslink proteins on mammalian cell surfaces.
Plasmid pCDNA3.1-14-3-3, pCDNA3.1-GST, or pCDNA3.1-EGFR (2 μg each) was transfected into one well of 6-well plate of HEK293T cells, respectively. After transfection, the cells were cultured at 37° C. for additional 24 hr. The cells were harvested and washed with PBS, pH 7.4 for one time, followed by resuspension in 50 μL PBS, pH 7.4. The cells were either added nothing or added with 4 mM NHQM and incubated at RT for 15 min. Then the cells were illuminated with or without UV at wavelength 365 nm for another 15 min. After that, the reaction was treated by adding 100 mM Tris-HCI, pH 7.5 and incubated at RT for 15 min. The samples were then quickly treated with 2×SDS loading dye containing 100 mM DTT, boiled at 95° C. for 5 mins, and analyzed by running Western blot using an anti-His antibody.

Chain of Bovine Serum Albumin (BSA) (P02769 25-607): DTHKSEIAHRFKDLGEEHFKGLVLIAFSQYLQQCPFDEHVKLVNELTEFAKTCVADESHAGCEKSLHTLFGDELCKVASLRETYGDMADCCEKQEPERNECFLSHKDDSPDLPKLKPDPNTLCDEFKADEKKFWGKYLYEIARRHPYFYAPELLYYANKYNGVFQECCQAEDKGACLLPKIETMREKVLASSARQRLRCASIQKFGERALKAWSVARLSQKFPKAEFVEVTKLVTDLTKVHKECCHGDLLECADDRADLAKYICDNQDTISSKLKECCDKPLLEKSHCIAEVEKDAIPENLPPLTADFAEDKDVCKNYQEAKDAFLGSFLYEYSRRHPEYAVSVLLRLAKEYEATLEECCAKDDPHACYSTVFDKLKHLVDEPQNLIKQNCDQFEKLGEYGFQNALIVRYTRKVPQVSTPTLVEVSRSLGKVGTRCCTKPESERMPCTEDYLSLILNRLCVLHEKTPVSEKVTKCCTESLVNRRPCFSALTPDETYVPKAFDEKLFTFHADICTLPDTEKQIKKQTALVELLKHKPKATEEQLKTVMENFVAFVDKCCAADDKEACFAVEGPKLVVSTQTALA
Chain of Thioredoxin (Trx) (P0AA25 whole entry): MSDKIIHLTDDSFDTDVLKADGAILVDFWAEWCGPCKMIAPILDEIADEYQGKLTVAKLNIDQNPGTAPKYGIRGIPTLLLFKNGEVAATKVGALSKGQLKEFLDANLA
Chain of endogenous EGFR in MCF7 cells (P00533 25-1210): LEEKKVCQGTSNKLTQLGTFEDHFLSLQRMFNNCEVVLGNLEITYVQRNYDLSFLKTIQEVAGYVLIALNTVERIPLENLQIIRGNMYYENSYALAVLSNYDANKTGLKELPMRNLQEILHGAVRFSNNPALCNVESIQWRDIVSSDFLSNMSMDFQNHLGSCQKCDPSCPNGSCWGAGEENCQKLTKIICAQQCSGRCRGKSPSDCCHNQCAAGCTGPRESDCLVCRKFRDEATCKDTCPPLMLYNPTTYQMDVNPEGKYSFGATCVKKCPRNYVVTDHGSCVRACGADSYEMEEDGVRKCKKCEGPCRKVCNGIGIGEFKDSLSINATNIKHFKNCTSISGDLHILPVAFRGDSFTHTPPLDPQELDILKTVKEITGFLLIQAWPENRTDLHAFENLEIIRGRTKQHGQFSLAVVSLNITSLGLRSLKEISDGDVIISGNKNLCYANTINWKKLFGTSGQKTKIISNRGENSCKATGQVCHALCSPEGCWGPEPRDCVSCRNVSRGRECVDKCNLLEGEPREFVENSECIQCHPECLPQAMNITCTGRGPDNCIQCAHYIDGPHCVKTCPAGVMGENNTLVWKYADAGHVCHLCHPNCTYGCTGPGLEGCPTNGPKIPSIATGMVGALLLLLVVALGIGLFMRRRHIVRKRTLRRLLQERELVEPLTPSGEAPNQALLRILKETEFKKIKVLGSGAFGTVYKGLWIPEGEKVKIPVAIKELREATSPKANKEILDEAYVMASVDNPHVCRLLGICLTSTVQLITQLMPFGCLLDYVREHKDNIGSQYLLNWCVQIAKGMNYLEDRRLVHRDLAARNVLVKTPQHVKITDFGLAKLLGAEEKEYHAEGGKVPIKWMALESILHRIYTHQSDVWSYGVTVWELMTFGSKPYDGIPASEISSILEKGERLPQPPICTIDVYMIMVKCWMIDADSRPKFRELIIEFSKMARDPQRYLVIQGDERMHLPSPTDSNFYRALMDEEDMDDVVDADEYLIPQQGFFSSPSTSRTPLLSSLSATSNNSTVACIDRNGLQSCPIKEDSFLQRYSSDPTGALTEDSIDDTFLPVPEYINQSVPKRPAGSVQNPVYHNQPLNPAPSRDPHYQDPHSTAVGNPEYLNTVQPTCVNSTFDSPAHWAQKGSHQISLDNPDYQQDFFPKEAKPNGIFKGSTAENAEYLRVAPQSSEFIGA
Chain of epidermal growth factor receptor (EGFR) (P00533 25-1210): as above
Procedure for Thioredoxin (Trx): We started by testing NHQM's ability to crosslink interacting proteins in E. coli cell lysates. […] We expressed His-tagged Trx in E. coli cells, and then applied NHQM to the cell lysate followed by UV activation.
Plasmid pBAD-Trx was transformed into BL21(DE3) E. coli cells, and the Trx protein expression was carried out following procedures described above except that the cell culture volume was decreased to 20 mL. After protein expression, the cells were harvested and resuspended in 15 mL 50 mM sodium phosphate buffer containing 200 mM NaCI, pH 7.5. The cells were broken by sonification. 15 μL cell suspension were taken and added with 0, 1, or 10 mM NHQM and incubated at RT for 15 min, followed by UV illumination at wavelength 365 nm for another 15 min. The reaction was then treated by adding 100 mM Tris-HCI, pH 7.5 and incubated at RT for 15 min. The samples were then quickly treated with SDS loading dye containing 100 mM DTT, boiled at 95° C. for 5 min, and then analyzed with Western blot using anti-His antibody.

For the molecule `[2H]C([2H])(CC(=O)ON1C(=O)CC(S(=O)(=O)O)C1=O)C([2H])([2H])C(=O)ON1C(=O)CC(S(=O)(=O)O)C1=O` (stereo not drawn) [BS2G, bis(sulfosuccinimidyl) 2,2,4,4-glutarate-d4], in the data set with peptide 7KR (Ac-AAAKAAR), the “Products detected after reaction with peptide 7KR” value is “both a mono-linked peptide as well as the cross-linked dimer”. The molecule further came in with an Inter-linked peptides identified in data set [1] of 106. Further, in data set [2] (10 μM BSA, 1 mM crosslinker, RT 1 h), the “Inter-peptide cross-links identified by MS” value was determined as 18. For the same molecule, the “Cross-linked peptides exceeding the distance limit” value in data set [2] (limit of 20 Å Cα-Cα, BSA structure PDB 3V03) is listed as “four”. The “Cross-linked peptides identified by MS” value in data set [3] (10 μM GST, 0.5 mM crosslinker, RT 1 h) worked out at 15. In addition, the “Cross-links incompatible with the GST structure” value in data set [3] (out of 15 cross-links, PDB 1N2A) stood at 6.

As to `O=C(CCCCCCC(=O)ON1C(=O)CC(S(=O)(=O)O)C1=O)ON1C(=O)CC(S(=O)(=O)O)C1=O` (stereo not drawn) [BS^3, bissulfosuccinimidyl suberate, reference compound], in data set [4], the “SSB-DNA crosslinking (upshifted band)” value was “did not result in SSB-DNA crosslinking”.

In the case of `O=C(c1ccc(OCc2ccccc2[N+](=O)[O-])c(C(F)F)c1)N1CCN(C(=O)c2ccc(OCc3ccccc3[N+](=O)[O-])c(C(F)F)c2)CC1` [HoQM], in the data set with HEK293T cells, the “Toxicity to HEK293T cells” value is “without apparent toxicity”.

For the molecule `O=C(ON1C(=O)CCC1=O)c1ccc(OCc2ccccc2[N+](=O)[O-])c(C(F)F)c1` [NHQM], the “SSB-DNA crosslinking (upshifted band)” value in [4] was “upshifted band was only observed for the SSB-19(3×) or SSB-ATC(4×) complex treated with both NHQM and UV light”. For the same molecule, the “Crosslinking of 14-3-3 QQR” value at 14-3-3(QQR) mutant is listed as “remained a monomer even at NHQM concentration up to 0.4 mM”. Moreover, at WT 14-3-3 protein (crosslinked 14-3-3, tandem MS), the “Pairs of crosslinked peptides identified” value is recorded as “Eight” and the “Residues crosslinked with Lys” value is “Arg, Asn, Gln, Glu, Lys, or Ser”. In addition, the “Cα-Cα distance of the crosslink exceeding the limit” value on WT 14-3-3 protein (limit ~22 Å) is recorded as 23.7 Å. The “Efficiency of dimeric crosslinking of 14-3-3 in live mammalian cells” value in [5] was less than 10%. Moreover, the “Dimeric crosslinking of 14-3-3 QQR mutant in cell lysate” value in data set [6] is “not the QQR mutant”. The “Crosslinking efficiency of endogenous EGFR” value in data set [7] is on record as “comparable to the commercial crosslinker BS^3”. For the same molecule, the “Crosslinked dimer of 14-3-3 WT versus crosslinker amount” value in data set [8] (0-0.4 mM NHQM, UV 365 nm 15 min) is “increased with higher NHQM concentration”. Moreover, the “UV exposure at which crosslinking of 14-3-3 could be observed” value in data set [8] (1 mM NHQM, UV 365 nm, SDS-PAGE) is 1 min. Moreover, the “Crosslinked dimer of 14-3-3” value in data set [8] (1 mM crosslinker, with or without UV 365 nm, SDS-PAGE) was “detected only with addition of NHQM crosslinker and UV illumination”. Further, the “Dimeric crosslinking of 14-3-3 WT in cell lysate” value in data set [9] is given as “crosslinked as dimer”. Further, in data set [10], the “SSB-M13mp18 crosslinking (upshift of minor form)” value was “only in the presence of both NHQM treatment and UV activation was the minor form of M13mp18 upshifted into the well”. Also, the “Efficiency of dimeric crosslinking of GST in live mammalian cells” value in [11] was less than 10%. Besides, on Thioredoxin (Trx), the “Crosslinking of endogenous proteins to Trx” value was “many endogenous proteins were crosslinked to Trx”. The “EGFR dimer on Western blot” value in data set [12] is on record as “EGFR dimer was detected”.
